Values joined by “and” are separate entries in the source; they are usually repeats but may differ in a detail not shown here. Equal entries are not always repeated.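 These data come from cells grown in 96-well plates and exposed to compound for 48 hours at five concentrations. At the GI50, growth is halved. TGI is the concentration that stops growth completely.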
How the values were obtained:
Assay in all cases: NCI anticancer screen, dose series, 48 h
[1] = system: UACC-62 melanoma
[2] = system: SW-620 colon
[3] = system: BT-549 breast
[4] = system: DMS 114 small cell lung
[5] = system: DLD-1 colon
[6] = system: SF-295 CNS
[7] = system: TK-10 renal
[8] = system: ACHN renal
[9] = system: MCF7 breast
[10] = system: NCI-H460 lung

**Q.** With `CC[C@H]1CN2CCc3cc(OC)c(OC)cc3[C@@H]2C[C@@H]1C[C@H]1NCCc2c1[nH]c1ccc(O)cc21` as the molecule, how does the GI50 [1] read?
**A.** 24.9 nM and 44.8 nM

**Q.** What about the GI50 [2] of the same molecule?
**A.** 28.6 nM and 33.9 nM

**Q.** And the GI50 [3]?
**A.** 558 nM

**Q.** And the TGI [3]?
**A.** 602 nM

**Q.** And the GI50 [4]?
**A.** 4.7 nM and 13.3 nM

**Q.** What about the TGI [4] of the same molecule?
**A.** 18.4 nM and 57.1 nM

**Q.** And the GI50 [5]?
**A.** 144 nM

**Q.** What about the TGI [5] of the same molecule?
**A.** 246 nM and 570 nM and 1580 nM

**Q.** And the GI50 [6]?
**A.** 32.3 nM and 246 nM

**Q.** What about the GI50 [7] of the same molecule?
**A.** 94.3 nM

**Q.** And the TGI [7]?
**A.** 277 nM and 875 nM and 728 nM

**Q.** And the GI50 [8]?
**A.** 78.2 nM and 121 nM

**Q.** And the TGI [8]?
**A.** 570 nM and 511 nM and 1500 nM

**Q.** What about the TGI [9] of the same molecule?
**A.** 137 nM

**Q.** And the GI50 [10]?
**A.** 25.2 nM and 39.8 nM

**Q.** What about the TGI [10] of the same molecule?
**A.** 91.2 nM and 395 nM and 42.2 nM

**Q.** For `Cc1ccc(C)c(N=C2NC(=O)C(CC(=O)Nc3ccc(Cl)cc3Cl)S2)c1` (configuration not stated), which TGI [1] is on record?
**A.** > 100000 nM

**Q.** And the TGI [2]?
**A.** > 100000 nM

**Q.** What about the TGI [4] of the same molecule?
**A.** > 100000 nM

**Q.** What about the TGI [5] of the same molecule?
**A.** > 100000 nM

**Q.** And the TGI [6]?
**A.** > 100000 nM

**Q.** What about the TGI [7] of the same molecule?
**A.** > 100000 nM

**Q.** What about the TGI [8] of the same molecule?
**A.** > 100000 nM

**Q.** And the TGI [10]?
**A.** > 100000 nM

**Q.** What does the source list for `CC(C)C(=O)NS(=O)(=O)c1ccccc1`?
**A.** TGI [1]: > 100000 nM; TGI [2]: > 100000 nM; TGI [4]: > 100000 nM; TGI [5]: > 100000 nM; TGI [6]: > 100000 nM; TGI [7]: > 100000 nM; TGI [8]: > 100000 nM; TGI [10]: > 100000 nM
